According to the supplement of paper PMC13380429:

Assays:
Details in all cases: 72 h
U2OS [1] = experiment: relative viability EC50 (midpoint between 100% and the lowest measured viability); higher = less toxic
Vero E6 [2] = experiment: as above
HepG2 [3] = experiment: as above
U2OS [4] = experiment: cell viability relative to DMSO; higher = less toxic
Vero E6 [5] = experiment: as above
HepG2 [6] = experiment: as above
U2OS [7] = experiment: drug sensitivity score (DSS) for viability; higher = more toxic; extreme values may be limits of the assay
Vero E6 [8] = experiment: as above
HepG2 [9] = experiment: as above
Calu-3 [10] = experiment: relative viability EC50 (midpoint between 100% and the lowest measured viability); higher = less toxic
Caco-2 [11] = experiment: cell viability relative to DMSO; higher = less toxic
Calu-3 [12] = experiment: as above
Caco-2 [13] = experiment: drug sensitivity score (DSS) for viability; higher = more toxic; extreme values may be limits of the assay
Calu-3 [14] = experiment: as above
Caco-2 [15] = experiment: relative viability EC50 (midpoint between 100% and the lowest measured viability); higher = less toxic

Compound	relative viability EC50 (U2OS [1])	relative viability EC50 (Vero E6 [2])	relative viability EC50 (HepG2 [3])	cell viability (U2OS [4]; 1 nM)	cell viability (U2OS [4]; 10 nM)	cell viability (U2OS [4]; 100 nM)	cell viability (U2OS [4]; 1000 nM)	cell viability (U2OS [4]; 10000 nM)	cell viability (Vero E6 [5]; 1 nM)	cell viability (Vero E6 [5]; 10 nM)	cell viability (Vero E6 [5]; 100 nM)	cell viability (Vero E6 [5]; 1000 nM)	cell viability (Vero E6 [5]; 10000 nM)	cell viability (HepG2 [6]; 1 nM)	cell viability (HepG2 [6]; 10 nM)	cell viability (HepG2 [6]; 100 nM)	cell viability (HepG2 [6]; 1000 nM)	cell viability (HepG2 [6]; 10000 nM)	drug sensitivity score (U2OS [7])	drug sensitivity score (Vero E6 [8])	drug sensitivity score (HepG2 [9])	relative viability EC50 (Calu-3 [10])	cell viability (Caco-2 [11]; 1 nM)	cell viability (Caco-2 [11]; 10 nM)	cell viability (Caco-2 [11]; 100 nM)	cell viability (Caco-2 [11]; 1000 nM)	cell viability (Caco-2 [11]; 10000 nM)	cell viability (Calu-3 [12]; 1 nM)	cell viability (Calu-3 [12]; 10 nM)	cell viability (Calu-3 [12]; 100 nM)	cell viability (Calu-3 [12]; 1000 nM)	cell viability (Calu-3 [12]; 10000 nM)	drug sensitivity score (Caco-2 [13])	drug sensitivity score (Calu-3 [14])	relative viability EC50 (Caco-2 [15])
CC(C)[C@@H](C)/C=C/[C@@H](C)[C@H]1CC[C@H]2C3=CC=C4C[C@@H](O)CC[C@]4(C)[C@H]3CC[C@]12C [ergosterol]	> 10 µM	> 10 µM	> 10 µM	103%	96.7%	97.8%	94.7%	102%	95.7%	103%	94.7%	102%	95.5%	92%	102%	96.5%	104%	95%	0	0	0														
Nc1ncnc2[nH]nc(Nc3ccc(F)cc3)c12	> 10 µM			98.5%	98.9%	98.4%	96%	83%	107%	103%	99.8%	101%	54.4%	114%	101%	108%	96.5%	66.2%	0.8	2.3	2.1	> 10 µM	95%	93.5%	106%	93.1%	73.4%	102%	101%	101%	95.6%	79.2%	2.1	1.2	
OC[C@H]1O[C@@H](n2cnc3c(NC4CCCC4)nc(Cl)nc32)[C@H](O)[C@@H]1O [2-chloro-N6-cyclopentyladenosine]		> 10 µM							102%	106%	98.5%	99.5%	104%							0		> 10 µM						105%	91.8%	104%	92.6%	106%		0	
O=C1NC(=O)[C@@]2(CCOc3ccc(F)cc32)N1 [sorbinil]	> 10 µM			96.7%	105%	97%	102%	96.5%											0			> 10 µM						103%	120%	87.5%	113%	102%		0	
NCCNc1ccc(NCCN)c2c1C(=O)c1ccncc1C2=O [pixantrone]	> 10 µM	> 10 µM		100%	101%	96.5%	103%	87.2%	104%	104%	104%	94.4%	97%	100%	94.8%	98.9%	90.2%	62.9%	0	0	3.3	> 10 µM	87.4%	105%	96.7%	88.1%	74.9%	93.4%	120%	95.4%	102%	82.5%	1.9	0.3	
C[C@H]1[C@H](OC(=O)CCC(=O)O)O[C@@H]2O[C@@]3(C)CC[C@H]4[C@H](C)CC[C@@H]1[C@@]24OO3 [artesunate]	1.42 µM			102%	100%	100%	81%	35.3%	97.4%	97.8%	96.5%	98.5%	69.2%	91.9%	96.5%	94.5%	88.3%	65.2%	6.4	1.6	2.8	> 10 µM	102%	96.1%	98.3%	98.3%	73%	104%	98.3%	114%	107%	88%	1.3	0	
CC(C)(O)CC[C@@H](O)[C@](C)(O)[C@H]1CC[C@@]2(O)C3=CC(=O)[C@@H]4C[C@@H](O)[C@@H](O)C[C@]4(C)[C@H]3CC[C@]12C [20-hydroxyecdysone]	> 10 µM			98%	101%	99.2%	99.7%	102%											0			> 10 µM	98.8%	98.4%	85.5%	96.8%	97.1%	93.6%	101%	91%	102%	114%	0	0	> 10 µM
O=C(/C=C/c1cccnc1)c1ccncc1 [3PO]	> 10 µM	> 10 µM		101%	99.7%	100%	99%	82.5%	107%	112%	100%	111%	87.7%	103%	102%	93.2%	112%	72.7%	0.5	0	0.7		103%	97.1%	99.7%	92.3%	77.3%						1.8		> 10 µM
O[C@@H](CN1CCNCC1)Cn1c2ccc(Br)cc2c2cc(Br)ccc21 [BAX-channel-blocker]	2.66 µM	2.59 µM	2.78 µM	97.6%	102%	97.8%	93.9%	3.8%	101%	96.5%	96.1%	92.9%	0.2%	91.2%	102%	90.4%	95%	0.2%	6.3	6.6	6.3		100%	104%	93.6%	87.7%	10.4%						7		2.06 µM
O=C(O)CN(CCN(CC(=O)O)CC(=O)O)CC(=O)O [ethylenediaminetetraacetic-acid]																			0	0	0													0	
COc1cccc(C=NCCN=Cc2cccc(OC)c2[O-])c1[O-].[Cl-].[Mn+3] [EUK-134]	> 10 µM	> 10 µM		101%	96.6%	107%	99.3%	99%	98.4%	102%	99.3%	105%	96%	95%	109%	99.5%	101%	72.3%	0	0	1.1	> 10 µM	94.7%	89%	91.5%	92%	85.6%	110%	87.9%	102%	94%	99.3%	0	0	> 10 µM
Cn1ccc2cc3c(cc21)CCN3C(=O)Nc1cccnc1	> 10 µM	> 10 µM	> 10 µM	98.2%	102%	93.9%	96%	95.1%	99.1%	96.8%	100%	95.5%	100%	105%	114%	95.7%	95.3%	100%	0	0	0		88.8%	93.2%	98.1%	104%	81.3%						0.1		> 10 µM
O=C1Nc2cc(Cl)c(Cl)cc2N2CCNC[C@H]12	> 10 µM	> 10 µM		102%	94.9%	100%	95%	96.2%	104%	100%	100%	99.1%	95.7%						0	0		> 10 µM	110%	100%	102%	92.2%	85.9%	103%	95.1%	97.3%	97.7%	92.5%	0.7	0	> 10 µM
Cc1ccc(C(=O)c2cc(O)c(O)c([N+](=O)[O-])c2)cc1 [tolcapone]		> 10 µM	> 10 µM						109%	102%	99.8%	100%	104%	106%	117%	105%	109%	97.2%		0	0														
O=C(C1CC1)N1CC[C@@H](Cc2n[nH]c(=O)n2-c2ccc(-c3ccc4occc4c3)cc2)C1	> 10 µM	> 10 µM		102%	96.2%	101%	97.3%	99.7%	97.4%	101%	98.8%	100%	98.9%	109%	106%	93.2%	80.2%	71.2%	0	0	3.6		104%	97.8%	91.9%	89.5%	76.3%						1.7		> 10 µM
C[N+](C)(C)CCOC(N)=O [carbachol]	> 10 µM	> 10 µM		107%	107%	98.3%	103%	98.3%	101%	98.4%	97.3%	97.2%	99%						0	0		> 10 µM	93.6%	98.2%	106%	99.1%	106%	95%	102%	94%	97.8%	100%	0	0	> 10 µM
N#Cc1ccc2[nH]cc(CCCCN3CCN(c4ccc5oc(C(N)=O)cc5c4)CC3)c2c1 [vilazodone]	> 10 µM			99.4%	108%	97.7%	101%	92%	92.7%	99.6%	95.3%	91.2%	71.6%	107%	99.9%	99.5%	95.9%	66.4%	0	2	2.2	> 10 µM	96.6%	106%	104%	101%	83%	87.5%	88.7%	74.5%	93.6%	86.6%	0.3	0	> 10 µM
COc1ccc(/C=C/C(=O)Nc2ccccc2C(=O)O)cc1OC [tranilast]	> 10 µM			97.2%	97.3%	93.2%	99.8%	96%											0			> 10 µM	96.9%	97%	95.3%	103%	93.3%	91.9%	107%	88.3%	95.9%	93.1%	0	0	> 10 µM
